According to patent US10294202B2, “Pyrrolidinones as herbicides” (FMC Corporation, priority 2013, dated 2019):

Columns and labels:
morningglory = experiment: Test A pre-/postemergence herbicide test; format: in vivo, Ipomoea spp.; details: for Morningglory plant response rating: visual rating on 0 to 100 scale (0 no effect, 100 complete control)
Procedure, shortened: (§1)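 Seeds sown in loam soil/sand blend received a preemergence directed soil spray of test chemical in non-phytotoxic solvent with surfactant; postemergence plants (2–10 cm, one- to two-leaf stage) were sprayed with the same formulation. After about 10 days in greenhouse, injury was rated visually versus untreated controls, 0 (no effect) to 100 (complete control).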

corn = experiment: Test A pre-/postemergence herbicide test; format: in vivo, Zea mays; details: for Corn plant response rating: visual rating on 0 to 100 scale (0 no effect, 100 complete control)
Procedure, shortened: as §1

barnyardgrass [1] = experiment: Test A pre-/postemergence herbicide test; format: in vivo, Echinochloa crus-galli; details: for Barnyardgrass plant response rating: visual rating on 0 to 100 scale (0 no effect, 100 complete control)
Procedure, shortened: as §1

crabgrass, large = experiment: Test A pre-/postemergence herbicide test; format: in vivo, Digitaria sanguinalis; details: for Crabgrass, Large plant response rating: visual rating on 0 to 100 scale (0 no effect, 100 complete control)
Procedure, shortened: as §1

barnyardgrass [2] = experiment: Test B flooded paddy test; format: in vivo, Echinochloa crus-galli; details: 250 g ai/ha, Flood; scale of 0 to 100 where 0 is no effect and 100 is complete control
Procedure, shortened: (§2)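 2-leaf plants; flood 3 cm over soil; compound into paddy water; depth held. Greenhouse 13–15 d. Visual rating vs controls, 0 (no effect) to 100 (complete control); dash = not tested.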

sedge, umbrella = experiment: Test B flooded paddy test; format: in vivo, Cyperus difformis; details: 250 g ai/ha, Flood; scale of 0 to 100 where 0 is no effect and 100 is complete control
Procedure, shortened: as §2

giant foxtail = experiment: Test A pre-/postemergence herbicide test; format: in vivo, Setaria faberii; details: for Foxtail, Giant plant response rating: visual rating on 0 to 100 scale (0 no effect, 100 complete control)
Procedure, shortened: as §1

velvetleaf = experiment: Test A pre-/postemergence herbicide test; format: in vivo, Abutilon theophrasti; details: for Velvetleaf plant response rating: visual rating on 0 to 100 scale (0 no effect, 100 complete control)
Procedure, shortened: as §1

pigweed = experiment: Test A pre-/postemergence herbicide test; format: in vivo, Amaranthus retroflexus; details: for Pigweed plant response rating: visual rating on 0 to 100 scale (0 no effect, 100 complete control)
Procedure, shortened: as §1

rice = experiment: Test B flooded paddy test; format: in vivo, Oryza sativa; details: 250 g ai/ha, Flood; scale of 0 to 100 where 0 is no effect and 100 is complete control
Procedure, shortened: as §2

wheat = experiment: Test A pre-/postemergence herbicide test; format: in vivo, Triticum aestivum; details: for Wheat plant response rating: visual rating on 0 to 100 scale (0 no effect, 100 complete control)
Procedure, shortened: as §1

ducksalad = experiment: Test B flooded paddy test; format: in vivo, Heteranthera limosa; details: 250 g ai/ha, Flood; scale of 0 to 100 where 0 is no effect and 100 is complete control
Procedure, shortened: as §2

[3] = Postemergence, 125 g ai/ha, 0 to 100 scale, 0 no effect, 100 complete control
[4] = Postemergence, 500 g ai/ha, 0 to 100 scale (0 no effect, 100 complete control)
[5] = preemergence, 500 g ai/ha, 0 to 100 scale
[6] = preemergence, 500 g ai/ha, 0 to 100 scale (0 no effect, 100 complete control)
[7] = Postemergence, 125 g ai/ha, 0 to 100 scale, 0 is no effect, 100 is complete control
[8] = Preemergence, 125 g ai/ha, 0 to 100 scale where 0 is no effect and 100 is complete control
[9] = preemergence, 500 g ai/ha, 0 to 100 scale, 0 is no effect and 100 is complete control

Compound: O=C1NCC(c2ccc(Cl)c(Cl)c2)C1C(=O)Nc1ccccc1OC(F)(F)F (racemic) [Compound 32]
- Plant response rating, Morningglory (morningglory; [3]): 0
- Plant response rating, Morningglory (morningglory; [4]): 0
- Morningglory plant response rating (morningglory; Preemergence, 125 g ai/ha): 0
- Plant response rating, Morningglory (morningglory; [5]): 0
- Plant response rating, Corn (corn; [3]): 0
- Plant response rating, Corn (corn; [4]): 0
- Corn plant response rating (corn; Preemergence, 125 g ai/ha): 0
- Plant response rating, Corn (corn; [5]): 0
- Plant response rating, Barnyardgrass (barnyardgrass [1]; [3]): 0
- Plant response rating, Barnyardgrass (barnyardgrass [1]; [4]): 0
- Barnyardgrass plant response rating (barnyardgrass [1]; Preemergence, 125 g ai/ha): 0
- Plant response rating, Barnyardgrass (barnyardgrass [1]; [6]): 0
- Plant response rating, Crabgrass, Large (crabgrass, large; [3]): 0
- Plant response rating, Crabgrass, Large (crabgrass, large; [4]): 30
- Crabgrass, Large plant response rating (crabgrass, large; Preemergence, 125 g ai/ha): 80
- Plant response rating, Crabgrass, Large (crabgrass, large; [5]): 80
- Plant response rating, Barnyardgrass (barnyardgrass [2]): 0
- Plant response rating, Sedge, Umbrella (sedge, umbrella): 0
- Plant response rating, Foxtail, Giant (giant foxtail; [3]): 0
- Plant response rating, Foxtail, Giant (giant foxtail; [4]): 40
- Foxtail, Giant plant response rating (giant foxtail; Preemergence, 125 g ai/ha): 70
- Plant response rating, Foxtail, Giant (giant foxtail; [5]): 80
- Plant response rating, Velvetleaf (velvetleaf; [3]): 0
- Plant response rating, Velvetleaf (velvetleaf; [4]): 0
- Velvetleaf plant response rating (velvetleaf; Preemergence, 125 g ai/ha): 0
- Plant response rating, Velvetleaf (velvetleaf; [5]): 0
- Plant response rating, Pigweed (pigweed; [3]): 0
- Plant response rating, Pigweed (pigweed; [4]): 0
- Pigweed plant response rating (pigweed; Preemergence, 125 g ai/ha): 0
- Plant response rating, Pigweed (pigweed; [5]): 0
- Plant response rating, Rice (rice): 0
- Plant response rating, Wheat (wheat; [3]): 0
- Plant response rating, Wheat (wheat; [4]): 0
- Wheat plant response rating (wheat; Preemergence, 125 g ai/ha): 0
- Plant response rating, Wheat (wheat; [5]): 0
- Plant response rating, Ducksalad (ducksalad): 50

Compound: O=C1NCC(c2ccc(OC(F)(F)F)cc2)C1C(=O)Nc1ccccc1C(F)(F)F (racemic) [Compound 258]
- Plant response rating, Morningglory (morningglory; [7]): 0
- Plant response rating, Morningglory (morningglory; [4]): 0
- Plant response rating, Morningglory (morningglory; [8]): 0
- Plant response rating, Morningglory (morningglory; [9]): 0
- Plant response rating, Corn (corn; [7]): 0
- Plant response rating, Corn (corn; [4]): 20
- Plant response rating, Corn (corn; [8]): 0
- Plant response rating, Corn (corn; [9]): 0
- Plant response rating, Barnyardgrass (barnyardgrass [1]; [7]): 40
- Plant response rating, Barnyardgrass (barnyardgrass [1]; [4]): 80
- Plant response rating, Barnyardgrass (barnyardgrass [1]; [8]): 20
- Plant response rating, Barnyardgrass (barnyardgrass [1]; [9]): 90
- Plant response rating, Crabgrass, Large (crabgrass, large; [7]): 80
- Plant response rating, Crabgrass, Large (crabgrass, large; [4]): 90
- Plant response rating, Crabgrass, Large (crabgrass, large; [8]): 90
- Plant response rating, Crabgrass, Large (crabgrass, large; [9]): 90
- Plant response rating, Barnyardgrass (barnyardgrass [2]): 0
- Plant response rating, Sedge, Umbrella (sedge, umbrella): 40
- Plant response rating, Foxtail, Giant (giant foxtail; [7]): 60
- Plant response rating, Foxtail, Giant (giant foxtail; [4]): 80
- Plant response rating, Foxtail, Giant (giant foxtail; [8]): 50
- Plant response rating, Foxtail, Giant (giant foxtail; [9]): 90
- Plant response rating, Velvetleaf (velvetleaf; [7]): 0
- Plant response rating, Velvetleaf (velvetleaf; [4]): 0
- Plant response rating, Velvetleaf (velvetleaf; [8]): 0
- Plant response rating, Velvetleaf (velvetleaf; [9]): 0
- Plant response rating, Pigweed (pigweed; [7]): 0
- Plant response rating, Pigweed (pigweed; [4]): 0
- Plant response rating, Pigweed (pigweed; [8]): 0
- Plant response rating, Pigweed (pigweed; [9]): 0
- Plant response rating, Rice (rice): 0
- Plant response rating, Wheat (wheat; [7]): 0
- Plant response rating, Wheat (wheat; [4]): 30
- Plant response rating, Wheat (wheat; [8]): 0
- Plant response rating, Wheat (wheat; [9]): 0
- Plant response rating, Ducksalad (ducksalad): 60

Compound: O=C1NCC(c2ccccc2)C1C(=O)Nc1ccccc1Cl (racemic) [Compound 83]
- Plant response rating, Morningglory (morningglory; [3]): 0
- Plant response rating, Morningglory (morningglory; [4]): 0
- Morningglory plant response rating (morningglory; Preemergence, 125 g ai/ha): 0
- Plant response rating, Morningglory (morningglory; [5]): 0
- Plant response rating, Corn (corn; [3]): 0
- Plant response rating, Corn (corn; [4]): 0
- Corn plant response rating (corn; Preemergence, 125 g ai/ha): 0
- Plant response rating, Corn (corn; [5]): 0
- Plant response rating, Barnyardgrass (barnyardgrass [1]; [4]): 60
- Barnyardgrass plant response rating (barnyardgrass [1]; Preemergence, 125 g ai/ha): 0
- Plant response rating, Barnyardgrass (barnyardgrass [1]; [6]): 50
- Plant response rating, Crabgrass, Large (crabgrass, large; [3]): 20
- Plant response rating, Crabgrass, Large (crabgrass, large; [4]): 70
- Crabgrass, Large plant response rating (crabgrass, large; Preemergence, 125 g ai/ha): 70
- Plant response rating, Crabgrass, Large (crabgrass, large; [5]): 90
- Plant response rating, Barnyardgrass (barnyardgrass [2]): 30
- Plant response rating, Sedge, Umbrella (sedge, umbrella): 0
- Plant response rating, Foxtail, Giant (giant foxtail; [3]): 0
- Plant response rating, Foxtail, Giant (giant foxtail; [4]): 50
- Foxtail, Giant plant response rating (giant foxtail; Preemergence, 125 g ai/ha): 0
- Plant response rating, Foxtail, Giant (giant foxtail; [5]): 70
- Plant response rating, Velvetleaf (velvetleaf; [3]): 0
- Plant response rating, Velvetleaf (velvetleaf; [4]): 0
- Velvetleaf plant response rating (velvetleaf; Preemergence, 125 g ai/ha): 0
- Plant response rating, Velvetleaf (velvetleaf; [5]): 0
- Plant response rating, Pigweed (pigweed; [3]): 0
- Plant response rating, Pigweed (pigweed; [4]): 0
- Pigweed plant response rating (pigweed; Preemergence, 125 g ai/ha): 0
- Plant response rating, Pigweed (pigweed; [5]): 0
- Plant response rating, Rice (rice): 0
- Plant response rating, Wheat (wheat; [3]): 0
- Plant response rating, Wheat (wheat; [4]): 0
- Wheat plant response rating (wheat; Preemergence, 125 g ai/ha): 0
- Plant response rating, Wheat (wheat; [5]): 0
- Plant response rating, Ducksalad (ducksalad): 50
